Consider four cell lines from the supplement of paper PMC10307832.

What all share (experiment): relative viability (nuclei count vs DMSO), 5 days (fraction); higher = more cells survive
Compound in the test “RAF265 + Luminespib”: Cn1c(Nc2ccc(C(F)(F)F)cc2)nc2cc(Oc3ccnc(-c4ncc(C(F)(F)F)[nH]4)c3)ccc21 [RAF265] + CCNC(=O)c1noc(-c2cc(C(C)C)c(O)cc2O)c1-c1ccc(CN2CCOCC2)cc1 [Luminespib] (partner 0.01 µM)
Summed up: (§1)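 One day after seeding in 1536-well plates, lung cancer cell lines were dosed by pin tool. Dosing was either single-drug or a fixed anchor-drug dose plus five library-drug doses (not always all listed) in √10 steps. After 5 days, nuclei were stained in one fix-and-stain step and counted on 4× images, and relative viability is the nuclei count of treated wells over that of vehicle wells, given as the median of duplicate plates.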

Compound in the test “RAF265 + Crizotinib”: Cn1c(Nc2ccc(C(F)(F)F)cc2)nc2cc(Oc3ccnc(-c4ncc(C(F)(F)F)[nH]4)c3)ccc21 [RAF265] + C[C@@H](Oc1cc(-c2cnn(C3CCNCC3)c2)cnc1N)c1c(Cl)ccc(F)c1Cl [Crizotinib] (partner 1 µM)
The gist of the method: as §1

Compound in the test “Doramapimod + Crizotinib”: Cc1ccc(-n2nc(C(C)(C)C)cc2NC(=O)Nc2ccc(OCCN3CCOCC3)c3ccccc23)cc1 [Doramapimod] + C[C@@H](Oc1cc(-c2cnn(C3CCNCC3)c2)cnc1N)c1c(Cl)ccc(F)c1Cl [Crizotinib] (partner 1 µM)
Summed up:
as §1

Compound in the test “RAF265 + Pemetrexed”: Cn1c(Nc2ccc(C(F)(F)F)cc2)nc2cc(Oc3ccnc(-c4ncc(C(F)(F)F)[nH]4)c3)ccc21 [RAF265] + Nc1nc2[nH]cc(CCc3ccc(C(=O)N[C@@H](CCC(=O)O)C(=O)O)cc3)c2c(=O)[nH]1 [Pemetrexed] (partner 0.2 µM)
Summed up: as §1

As to LC-2-ad, the relative viability was 1.31 in the test with RAF265 + Luminespib (first compound 0.01 µM); 1.05 with RAF265 + Luminespib (first compound 0.03162 µM); 1.14 with RAF265 + Luminespib (first compound 0.1 µM); 0.692 with RAF265 + Luminespib (first compound 0.3162 µM); 0.672 with RAF265 + Luminespib (first compound 1 µM); 0.451 in the test with RAF265 + Crizotinib (first compound 0.01 µM). Further, the relative viability with RAF265 + Crizotinib (first compound 0.03162 µM) was determined as 0.442; with RAF265 + Crizotinib (first compound 0.1 µM), 0.492; in the test with RAF265 + Crizotinib (first compound 0.3162 µM) it was 0.474; with RAF265 + Crizotinib (first compound 1 µM), 0.305; with Doramapimod + Crizotinib (first compound 0.02 µM), 0.531; in the test with Doramapimod + Crizotinib (first compound 0.06325 µM), 0.451. Also, the relative viability with Doramapimod + Crizotinib (first compound 0.2 µM) came out at 0.448; with Doramapimod + Crizotinib (first compound 0.6325 µM), 0.435; with Doramapimod + Crizotinib (first compound 2 µM) it was 0.385; with RAF265 + Pemetrexed (first compound 0.01 µM), 0.275; with RAF265 + Pemetrexed (first compound 0.03162 µM), 0.3; with RAF265 + Pemetrexed (first compound 0.1 µM) it was 0.288. Also, the relative viability was 0.292 with RAF265 + Pemetrexed (first compound 0.3162 µM) and 0.258 in the test with RAF265 + Pemetrexed (first compound 1 µM).
Turning to LCLC-97TM1, the relative viability came to 0.819 with RAF265 + Luminespib (first compound 0.01 µM); 0.67 with RAF265 + Luminespib (first compound 0.03162 µM); 0.632 with RAF265 + Luminespib (first compound 0.1 µM); 0.309 with RAF265 + Luminespib (first compound 0.3162 µM); 0.306 with RAF265 + Luminespib (first compound 1 µM); 0.355 with RAF265 + Crizotinib (first compound 0.01 µM). In addition, the relative viability with RAF265 + Crizotinib (first compound 0.03162 µM) was 0.274; with RAF265 + Crizotinib (first compound 0.1 µM), 0.293; with RAF265 + Crizotinib (first compound 0.3162 µM), 0.181; with RAF265 + Crizotinib (first compound 1 µM), 0.121; with Doramapimod + Crizotinib (first compound 0.02 µM) it was 0.326; in the test with Doramapimod + Crizotinib (first compound 0.06325 µM) it was 0.357. Besides, the relative viability with Doramapimod + Crizotinib (first compound 0.2 µM) is 0.31; with Doramapimod + Crizotinib (first compound 0.6325 µM), 0.338; with Doramapimod + Crizotinib (first compound 2 µM), 0.209; with RAF265 + Pemetrexed (first compound 0.01 µM), 0.145; with RAF265 + Pemetrexed (first compound 0.03162 µM), 0.155; with RAF265 + Pemetrexed (first compound 0.1 µM) it was 0.149. Moreover, the values for the relative viability with RAF265 + Pemetrexed (first compound 0.3162 µM) and in the test with RAF265 + Pemetrexed (first compound 1 µM) were 0.153 and 0.128, respectively.
For the cell line LCLC-103H, the relative viability in the test with RAF265 + Luminespib (first compound 0.01 µM) was determined as 0.798; in the test with RAF265 + Luminespib (first compound 0.03162 µM), 0.804; with RAF265 + Luminespib (first compound 0.1 µM), 0.789; in the test with RAF265 + Luminespib (first compound 0.3162 µM) it was 0.739; with RAF265 + Luminespib (first compound 1 µM) it was 0.39; with RAF265 + Crizotinib (first compound 0.01 µM), 1.06. Also, the relative viability is 1.05 with RAF265 + Crizotinib (first compound 0.03162 µM); 1.07 with RAF265 + Crizotinib (first compound 0.1 µM); 1 in the test with RAF265 + Crizotinib (first compound 0.3162 µM); 0.713 with RAF265 + Crizotinib (first compound 1 µM); 1.05 in the test with Doramapimod + Crizotinib (first compound 0.02 µM); 1.06 with Doramapimod + Crizotinib (first compound 0.06325 µM). Moreover, the relative viability with Doramapimod + Crizotinib (first compound 0.2 µM) was found to be 1.08; in the test with Doramapimod + Crizotinib (first compound 0.6325 µM), 1.06; in the test with Doramapimod + Crizotinib (first compound 2 µM), 0.944; with RAF265 + Pemetrexed (first compound 0.01 µM), 0.496; with RAF265 + Pemetrexed (first compound 0.03162 µM), 0.423; with RAF265 + Pemetrexed (first compound 0.1 µM) it was 0.476. Further, the relative viability with RAF265 + Pemetrexed (first compound 0.3162 µM) came out at 0.459; in the test with RAF265 + Pemetrexed (first compound 1 µM), 0.429.
On to LK-2, for which the relative viability stood at 0.172 with RAF265 + Luminespib (first compound 0.01 µM); 0.227 in the test with RAF265 + Luminespib (first compound 0.03162 µM); 0.196 with RAF265 + Luminespib (first compound 0.1 µM); 0.236 in the test with RAF265 + Luminespib (first compound 0.3162 µM); 0.191 in the test with RAF265 + Luminespib (first compound 1 µM); 0.203 with RAF265 + Crizotinib (first compound 0.01 µM). Besides, the relative viability in the test with RAF265 + Crizotinib (first compound 0.03162 µM) worked out at 0.222; in the test with RAF265 + Crizotinib (first compound 0.1 µM) it was 0.239; with RAF265 + Crizotinib (first compound 0.3162 µM), 0.237; with RAF265 + Crizotinib (first compound 1 µM), 0.223; with Doramapimod + Crizotinib (first compound 0.02 µM) it was 0.246; with Doramapimod + Crizotinib (first compound 0.06325 µM) it was 0.266. Further, the relative viability stood at 0.207 in the test with Doramapimod + Crizotinib (first compound 0.2 µM); 0.207 with Doramapimod + Crizotinib (first compound 0.6325 µM); 0.205 in the test with Doramapimod + Crizotinib (first compound 2 µM); 0.237 in the test with RAF265 + Pemetrexed (first compound 0.01 µM); 0.352 with RAF265 + Pemetrexed (first compound 0.03162 µM); 0.188 with RAF265 + Pemetrexed (first compound 0.1 µM). Besides, the relative viability in the test with RAF265 + Pemetrexed (first compound 0.3162 µM) was determined as 0.244; with RAF265 + Pemetrexed (first compound 1 µM) it was 0.215.
